Source: PMC9617675 (Antiviral Research, 2022)
Where two headings read alike, the source gives them in different places.

Tested on: SARS-CoV-2 Delta variant
Details: for lung histopathology (H&E): day 2 and day 4; for brain histopathology (H&E): day 4
[1] = day 4, both 100 mpk and 200 mpk groups

`O=C[C@H](C[C@@H]1CCNC1=O)NC(=O)[C@H](CC1CCCCC1)NC(=O)c1cc2ccccc2[nH]1` [FB2001] was tested. Which “change in the body weight of the mice” value (100 mpk and 200 mpk groups, vs day 0) did it give?
Its value is “no significant change”.

And the “reduction of lung viral load” value (100 mpk, day 2, vs vehicle)?
The value was 1.02 log10 copies/g.

What about the “lung histopathology (H&E)” value (100 mpk) of the same compound?
The value was “mild interstitial inflammatory cell infiltration”.

What about the “brain histopathology (H&E)” value (100 mpk) of the same compound?
The value was “some neurons were denatured”.

And the “reduction of brain viral load” value (100 mpk, day 4, vs vehicle)?
The value was 2.37 log10 copies/g.

What about the “reduction of lung viral load” value (100 mpk, day 4, vs vehicle) of the same compound?
The value was 0.67 log10 copies/g.

And the “reduction of lung viral load” value (200 mpk, day 2, vs vehicle)?
The value was 1.60 log10 copies/g.

And the “reduction of virus titer in lung” value (200 mpk, day 2, vs vehicle)?
The value was 3.57 log10 PFU/g.

And the “lung histopathology (H&E)” value (200 mpk)?
Its value is “decreased inflammation and normal alveolar spaces”.

What about the “brain histopathology (H&E)” value (200 mpk) of the same compound?
The value was “Neuronal cells were neatly arranged and abundant”.

What about the “reduction of brain viral load” value (200 mpk, day 4, vs vehicle) of the same compound?
Its value is 5.26 log10 copies/g.

And the “reduction of lung viral load” value (200 mpk, day 4, vs vehicle)?
Its value is 1.14 log10 copies/g.

What about the “brain immunohistochemistry staining of viral NP” value [1] of the same compound?
Its value is “nearly cleared”.

What about the “lung immunohistochemistry staining of viral NP” value [1] of the same compound?
Its value is “almost cleared”.

What about the “Viral titer in brain, Mean” value (mouse, in vivo) of the same compound?
Its value is “below the detection limit”.

What about the “Viral titer in lung, Mean” value (mouse, in vivo) of the same compound?
The value was “below the detection limit”.
